Source: patent US20240270760A1, “GLYCERIC ACID, GLYCERATE, AND COMPOSITION THEREOF” (INNER MONGOLIA KINGDOMWAY PHARMACEUTICAL CO., LTD., priority 2023, published 2024)

Tests used:
[1] = Dissolution of calcium glycerate forms in water at 37±0.2° C. (FIG. 9); format: physicochemical; conditions: comparison between forms
Alcohol metabolism = Alcohol metabolism test: ethanol content in venous blood after composition and ethanol feeding; format: in vivo, mice; conditions: for Percentage decrease compared to comparative group: decrease of venous blood ethanol content versus physiological saline group (75.0 mg/100 mL); for Ethanol content: venous blood 1 hour after 2 mL of 5% edible ethanol, 2 mL composition solution (4.5 g in 15 mL physiological saline) fed 1 hour before ethanol, 7 animals per group, GC-FID
Method: The test was divided into test groups and comparative groups. Each group included 7 healthy animals (e.g., mice). The healthy animals were fed in the laboratory for 10 days to adapt to the test environment, and then fasting was maintained 12 hours before the start of the test.
4.5 g of the compositions obtained in preparation examples 10-31 and comparative examples 1-8 were respectively dissolved in 15 mL of physiological saline to prepare composition solutions. The animals in the test groups were fed with 2 mL of the composition solution respectively, and the animals in the comparative group were fed with the same dose of normal saline. 1 hour later, the animals in the test groups and the comparative groups were fed with 2 mL of 5% edible ethanol, respectively. 1 hour later, the venous blood of the animals was collected. The ethanol content in the venous blood was detected by a gas chromatography-hydrogen flame ionization detector.

Compound	dissolution rate [1]	Percentage decrease compared to comparative group (Alcohol metabolism)	Ethanol content (Alcohol metabolism)
O=C([O][Ca][O]C(=O)[C@H](O)CO)[C@H](O)CO [crystalline Form II, calcium D-glycerate]	faster than that of crystalline Form I	–	–
O=C(O)[C@H](O)CO [compound 5, D-glyceric acid]	–	15.2%	63.6 mg/100 mL
O=C(O)[C@H](O)CO [compound 1, D-glyceric acid]	–	14.8%	63.9 mg/100 mL
